The numbers were not newly measured in US8450380B2, “Method for implementing active ingredients in order to protect them and optimize their delivery method” (Coatex S.A.S., priority 2007, dated 2013), which cites them from elsewhere.

The conditions of the data set: general statement.

In the case of `O=c1c2cc(Cl)ccc2[nH]c2cc3c(=O)c4cc(Cl)ccc4[nH]c3cc12` [Magenta Cinquasia RT-235-D, 2,9 dichloro-5,12 dihydroquino [2,3-b] acridine-7,14 dione], the Solubility result is “non-hydrosoluble”.
